Data reported in paper PMC11650737, “Developing MYC Degraders Bearing the Von Hippel–Lindau Ligand to Target the “Undruggable” MYC” (ACS Pharmacology & Translational Science, 2024).
Where “and” joins values, the source holds several entries; their conditions need not be identical. Identical values can stand only once. Entries after “also recorded” stand apart in the source; their conditions may differ. Like-named read-outs stand apart in the source and are kept apart here.

Legend:
A549 cells = assay: Cell viability (MTT) assay, A549; format: cell-based, human; conditions: 72 h
Procedure: (§1) The antiproliferative activity of the synthesized compounds was tested in cell viability assays optimally set up for various cancer cell lines (results are depicted in Table 2, n = 3, average IC50 (μM) ± SD).
Cells were plated at a density of 5 × 10^3 cells per well on 96-well plates. After 24 h of incubation (37 °C, 5% CO2), the cell medium was removed, and compounds were added at selected concentrations (0.1–100 μM), followed by incubation for 72 h. Control cells were treated with 0.4% DMSO medium to match the conditions in the wells where drugs were added. After 72 h, the medium was removed, and the 3-(4,5-dimethylthiazol-2-yl)-2,5-diphenyltetrazolium bromide (MTT) solution (0.3 mg/mL in PBS) was added to cells for 3 h under no light conditions. The MTT solution was removed, and the formazan crystals were dissolved in 100 μL of DMSO. The optical density was measured at 570 nm with a reference wavelength of 690 nm using an absorbance microplate reader (SpectraMax 190, Molecular Devices, Sunnyvale, CA, USA). The half-maximal inhibitory concentration (IC50) was calculated based on a four-parameter logistic equation, generating a cell viability curve, using GraphPad Prism 6.01 (GraphPad Software, Inc.). […] The resulting absorbance values were used instead of IC50 calculation. […]

SKBR3 cells [1] = assay: Cell uptake / intracellular concentration by LC-MS/MS, SKBR3; format: in vitro ADME, human; conditions: SKBR3, 24 h incubation with 10 μM
Procedure: (§2) Therefore, in order to better comprehend the observed activities of our degraders, following incubation of each compound with cells, the intracellular concentrations of the synthesized derivatives were evaluated in different cancer cell lines, as described previously.[28],[29] SKBR3, PC3, or A549 cells were incubated with PROTACs (at a 10 μΜ concentration) for selected time points, respectively. Upon sample treatment, compounds were extracted and analyzed by LC-MS/MS. Table 1 presents the percentage of the molecule that enters the cells after 24 h incubation at the 10 μM concentration. […] The small molecule MYCi361, used as a binding domain component of MYC, was also evaluated in the cell uptake assay (Table 1).
(§3) Cells were plated in 24-well plates at a density of 2 × 10^5 cells/well. 24 h after seeding, cells were incubated with each PROTAC (10 μΜ) for certain time points (1 h, 4 h, 8 h, and 24 h). The incubations were terminated at the selected time points by removing the medium and washing the cells twice with 1 mL cold PBS (1×) in each well in order to remove unbound PROTAC. Subsequently, the cells were lysed by adding a cold solution of ACN:H2O (3:2) and scraping off the cell monolayer. This process was done in two steps: first, 200 μL of ACN:H2O was added, the cells were scraped, and the cell lysate was collected. The second step involved the addition of an extra 100 μL of ACN:H2O, scraping, and collection of the remaining lysate. Samples were subsequently vortexed, sonicated, and centrifuged for 10 min at 13 000 rpm. The supernatants were collected, evaporated for 1 h at 55 °C, and stored at −20 °C until the day of analysis. Samples were then reconstituted in 200 μL of initial mobile phase (100% A), and the intracellular accumulation of PROTACs was determined by LC-MS/MS analysis using Warfarin as a stable internal standard and PROTAC standards for the construction of analytical standard curves.
(§4) The percentage of cell uptake was calculated as follows: [drawing 1]

c-MYC = biological target: T1, c-MYC (Homo sapiens, UniProt P01106); assay: MYC degradation in PC3 cells, Western blot; format: cell-based; conditions: for MYC degradation (MYC levels by Western blot): 10 μΜ, 24 h
T1 construct: endogenous in cells; host or cells: PC3
T1 sequence (P01106 whole entry): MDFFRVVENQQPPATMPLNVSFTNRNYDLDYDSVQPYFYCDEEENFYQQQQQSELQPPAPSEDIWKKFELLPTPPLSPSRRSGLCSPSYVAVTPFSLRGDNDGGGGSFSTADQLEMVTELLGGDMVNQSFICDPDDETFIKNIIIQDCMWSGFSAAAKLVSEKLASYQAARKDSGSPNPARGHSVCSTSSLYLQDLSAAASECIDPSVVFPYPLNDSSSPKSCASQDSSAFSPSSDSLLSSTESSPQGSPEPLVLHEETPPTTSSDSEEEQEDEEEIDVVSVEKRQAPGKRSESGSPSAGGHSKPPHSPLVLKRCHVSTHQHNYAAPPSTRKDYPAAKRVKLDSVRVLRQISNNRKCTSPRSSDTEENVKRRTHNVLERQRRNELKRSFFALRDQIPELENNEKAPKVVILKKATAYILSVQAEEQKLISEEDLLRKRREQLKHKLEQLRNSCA
Procedure: The ability of novel compounds to induce MYC degradation in the PC3 cell line was evaluated via a Western blot-based assay. […] A PROTAC that effectively degrades bromodomain and extra-terminal (BET) family proteins, with indirect action on MYC levels, BETd-260, was also included in these experiments as a positive control. BETd-260 was tested at a lower concentration (1 μΜ) due to its high potency.[26]
PC3 cells were used for the determination of MYC levels after treatment with the PROTACs under study. Cells (at a density of 250 000 per well) were seeded in 6-well plates for 24 h until 60% confluence. During the 24-h incubation period, cells were treated with the tested compounds (10 μΜ) and BETd-260 (1 μΜ) that was used as a positive control. For rescue experiments, cells were pretreated with the inhibitor MG-132 for 2 h, and then, the medium was removed, followed by the addition of the selected compound. After the 24-h incubation period, a cell lysis protocol was performed. The medium was removed, and the cells were rinsed with cold PBS. Lysis was induced using RIPA lysis buffer (50 mM Tris-HCl at pH 7.5, 150 mM NaCl, 5 mM Na2EDTA, 1 mM EGTA, 0.1% SDS, 1% NP-40, 0.5% sodium deoxycholate, 8 mM sodium fluoride, and 1 mM sodium orthovanadate) and protease inhibitor cocktail (Roche, UK). Total protein concentration in lysate samples was determined via performance of the Bradford assay in bovine serum albumin (BSA). Standard and unknown samples were preformulated in Coomassie blue G-250 assay reagent (Thermo Fisher Scientific, MA, USA), followed by a readout at 595 nm. Separation of the protein isolated from PC3 lysates, respectively (10 μg), with NuPAGE sample reducing agent and NuPAGE LDS sample buffer (Invitrogen, UK), was achieved via SDS-PAGE electrophoresis at 110 V for 2 h, prior to overnight transfer to the polyvinylidene difluoride (PVDF) membrane. The membranes were then blocked in 5% nonfat dry milk in Tris-buffered saline with 0.1% Tween-20 (TBST-T) for 1 h at room temperature.
Detection of MYC in PC3 cells was accomplished via immunoblot of the POI with the indicated monoclonal antibody (Cell Signaling Technology, MA, USA, catalog number #5605) at 1:1000 in TBST at […] overnight. The secondary anti-rabbit peroxidase-conjugate antibody (Cell Signaling Technology, MA, USA, catalog number #7074) was further added at 1:2000 dilution, followed by 1-h incubation at room temperature. Chemiluminescent visualization of the MYC protein bands was performed after the addition of Immobilon Crescendo Western HRP substrate (Sigma-Aldrich, Munich, Germany). For normalization of MYC concentration, GAPDH was labeled using the specific rabbit monoclonal antibody (Cell Signaling Technology, MA, USA, catalog number #5174) at 1:20000 in 5% nonfat dry milk. Protein bands were quantified with the ImageJ software.

PC3 cells [2] = assay: Cell viability (MTT) assay, PC3; format: cell-based, human; conditions: for IC50: read-out: IC50 (antiproliferative effect)
Procedure: as §1
(§5) Cells were plated at a density of 5 × 10^3 cells per well on 96-well plates. After 24 h of incubation (37 °C, 5% CO2), the cell medium was removed, and compounds were added at selected concentrations (0.1–100 μM), followed by incubation for 72 h. Control cells were treated with 0.4% DMSO medium to match the conditions in the wells where drugs were added. After 72 h, the medium was removed, and the 3-(4,5-dimethylthiazol-2-yl)-2,5-diphenyltetrazolium bromide (MTT) solution (0.3 mg/mL in PBS) was added to cells for 3 h under no light conditions. The MTT solution was removed, and the formazan crystals were dissolved in 100 μL of DMSO. The optical density was measured at 570 nm with a reference wavelength of 690 nm using an absorbance microplate reader (SpectraMax 190, Molecular Devices, Sunnyvale, CA, USA). The half-maximal inhibitory concentration (IC50) was calculated based on a four-parameter logistic equation, generating a cell viability curve, using GraphPad Prism 6.01 (GraphPad Software, Inc.). Two concentrations of an established drug, Docetaxel (100 nM and 1 nM), were used in each experiment as a positive control. The resulting absorbance values were used instead of IC50 calculation. Each point was the result of three independent experiments performed in triplicate.

MYC:MAX complex = assay: In vitro MYC-MAX binding assay (GST pull-down); format: biochemical; conditions: compound 150 μM
Procedure: To assess whether the new degraders affect direct interaction of MYC with MAX, we employed a pull-down approach using recombinant proteins that correspond to the bHLHZ regions of MYC and MAX. GST-MYC, bound to glutathione sepharose beads, was incubated with the pyrazole compounds, followed by incubation with His-MAX. Finally, the complex of GST-MYC/HisMAX was eluted by the addition of excess glutathione, while the amount of the eluted complex was assessed by western blotting using anti-MAX antibodies (Figure 5).
Figure 5 Inhibition of the formation of the MYC:MAX complex by the pyrazole compounds. The indicated compounds (150 μM), or the solvent alone (DMSO, used as a control), were incubated with GST-MYC containing glutathione beads for 10 min at […], followed by incubation with His-MAX. […] The complex of GST-MYC:His-MAX was eluted by incubation of the beads with free glutathione. The amount of the eluted complex was analyzed by western blotting (presented in the inset), using anti-MAX antibodies, while the protein bands were quantified with the ImageJ software. The intensity of the bands is presented in the bar graph. […] Statistics were based on the unpaired two-tailed student’s t-test. Data are shown as mean ± SEM.
MYC–MAX complex formation assays were performed using recombinantly produced GST-MYC and His-MAX proteins, following the glutathione GST pull-down principle (Lentzaris et al., in preparation). In this assay, recombinant GST-MYC bound to glutathione beads was preincubated with the indicated compound or vehicle […]. As a negative control, empty beads, i.e., not loaded with GST-MYC, were used. The formed complex was eluted with glutathione, while the amount of bound MAX (indicating the amount of the generated complex) was assessed by Western blotting using anti-MAX antibodies (Abcam) and quantified based on the image J free software. All assays were carried out at least three independent times.

SKBR3 cells [3] = assay: Cell viability (MTT) assay, SKBR3; format: cell-based, human
Procedure: as §1, §5

PSN1 cells = tested on: PSN1 cells; parameters: method as in PMID 34838332; conditions: PSN1 cells ref 13; read-out: GI50 (viability); cited from earlier work
HCT116 cells = tested on: HCT116 cells; parameters: method as in PMID 34838332; conditions: HCT116 cells ref 13; read-out: GI50 (viability); cited from earlier work
PC3 cells [4] = assay: Cell uptake / intracellular concentration by LC-MS/MS, PC3; format: in vitro ADME, human; conditions: PC3, 24 h incubation with 10 μM
Procedure: as §2, §3, §4

Question: Which results are given for `Cc1ncsc1-c1ccc(CNC(=O)[C@@H]2C[C@@H](O)CN2C(=O)[C@@H](NC(=O)CNC(=O)CCC(=O)NCCCOc2ccc(-c3cc(C(F)(F)F)nn3C)c(O)c2-c2cc(C(F)(F)F)cc(C(F)(F)F)c2)C(C)(C)C)cc1` [CSI95]?
Answer: IC50 (antiproliferative effect) (A549 cells): inactive; Uptake by cells (SKBR3 cells [1]): 16 ± 5%; MYC degradation (MYC levels by Western blot) (c-MYC): No particular effect; IC50 (antiproliferative effect) (PC3 cells [2]; 72 h): inactive

Question: Which “inhibition of MYC:MAX complex formation (binding of His-MAX to GST-MYC)” value (MYC:MAX complex) does the source give for `Cn1nc(C(F)(F)F)cc1-c1ccc(OCCCN)c(-c2cc(C(F)(F)F)cc(C(F)(F)F)c2)c1O.O=C(O)C(F)(F)F` [CSI118] here?
Answer: Its value is “did not seem to interfere significantly; also recorded: no effect on MYC/MAX dimerization”.

Question: What does the source list for `Cc1ncsc1-c1ccc(CNC(=O)[C@@H]2C[C@H](O)CN2C(=O)[C@@H](NC(=O)CCCC(=O)NCCCOc2ccc(-c3cc(C(F)(F)F)nn3C)c(O)c2-c2cc(C(F)(F)F)cc(C(F)(F)F)c2)C(C)(C)C)cc1` [CSI212]?
Answer: IC50 (antiproliferative effect) (SKBR3 cells [3]; 72 h): did not have any antiproliferative effect; also recorded: inactive; MYC degradation (MYC levels by Western blot) (c-MYC): inactive; IC50 (antiproliferative effect) (PC3 cells [2]; 72 h): did not have any antiproliferative effect; also recorded: inactive

Question: For `CCc1ccc(/C=C2/SC(=S)NC2=O)cc1` [Compound 10058-F4, reference compound], which IC50 (PC3 cells [2]; 72 h) is on record?
Answer: The IC50 was 23 µM and 25 µM.

Question: With `CC(C)c1ccc(/C=C2\SC(=O)N(CCCCCCCCNC(=O)c3ccc4c(c3)C(=O)N(C3CCC(=O)NC3=O)C4=O)C2=O)cc1` (stereo not shown) [MDEG-541] as the molecule, how does the GI50 (PSN1 cells) read?
Answer: Its GI50 is 10.7 µM.

Question: What about the GI50 (HCT116 cells) of the same molecule?
Answer: The GI50 was 14.3 µM.

Question: For `Cn1nc(C(F)(F)F)cc1-c1ccc(OCc2ccc(Cl)cc2)c(-c2cc(C(F)(F)F)cc(C(F)(F)F)c2)c1O` [MYCi361, reference compound], which Uptake by cells (PC3 cells [4]) is on record?
Answer: The Uptake by cells was 28% and 28 ± 5%.

Question: And the Uptake by cells (SKBR3 cells [1])?
Answer: Its Uptake by cells is 19% and 19 ± 1%.

Question: And the IC50 (SKBR3 cells [3]; Homo sapiens, SK-BR-3, 72 h, read-out: IC50 (antiproliferative effect))?
Answer: Its IC50 is 11 ± 4 µM.

Question: And the “concentration range in which MYC was degraded” value (c-MYC)?
Answer: The value was 5–10 μΜ.

Question: What about the IC50 (PC3 cells [2]; Homo sapiens, PC-3, 72 h) of the same molecule?
Answer: The IC50 was 8 ± 1 µM.
